Assay [1] concerns the target T1, panel of 442 kinases (Homo sapiens, UniProt Q92630).
T1 construct: purchased KINOMEscan
T1 sequence (Q92630 1-601): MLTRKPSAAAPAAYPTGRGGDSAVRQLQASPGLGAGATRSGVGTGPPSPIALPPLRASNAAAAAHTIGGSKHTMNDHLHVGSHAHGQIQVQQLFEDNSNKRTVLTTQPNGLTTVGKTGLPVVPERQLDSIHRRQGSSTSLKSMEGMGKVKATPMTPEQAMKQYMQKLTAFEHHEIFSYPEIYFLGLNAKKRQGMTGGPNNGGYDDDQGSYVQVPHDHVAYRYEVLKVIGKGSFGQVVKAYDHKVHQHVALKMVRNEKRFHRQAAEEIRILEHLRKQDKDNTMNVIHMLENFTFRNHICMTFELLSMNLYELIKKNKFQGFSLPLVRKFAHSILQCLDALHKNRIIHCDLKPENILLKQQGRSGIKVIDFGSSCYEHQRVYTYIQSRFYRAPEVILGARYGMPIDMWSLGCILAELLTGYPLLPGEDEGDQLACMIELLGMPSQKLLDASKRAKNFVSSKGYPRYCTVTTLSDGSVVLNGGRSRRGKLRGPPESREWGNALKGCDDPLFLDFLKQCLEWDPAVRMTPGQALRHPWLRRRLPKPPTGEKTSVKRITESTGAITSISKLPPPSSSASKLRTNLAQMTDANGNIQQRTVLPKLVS
It counts as binding. Particulars: Compound Concentration 10 µM. The source says: (§1) We assessed the selectivity of members of this scaffold using the KINOMEscan methodology across a near comprehensive panel of 442 kinases [[18,27]].

In assay [2] the target is T2, panel of 442 kinases (Homo sapiens, UniProt P42336, I800L).
T2 construct: purchased KINOMEscan
It counts as binding. Particulars: Compound Concentration 10 µM.
Excerpt: as §1

Each structure is given as a SMILES string.

T2 sequence (P42336 whole entry I800L): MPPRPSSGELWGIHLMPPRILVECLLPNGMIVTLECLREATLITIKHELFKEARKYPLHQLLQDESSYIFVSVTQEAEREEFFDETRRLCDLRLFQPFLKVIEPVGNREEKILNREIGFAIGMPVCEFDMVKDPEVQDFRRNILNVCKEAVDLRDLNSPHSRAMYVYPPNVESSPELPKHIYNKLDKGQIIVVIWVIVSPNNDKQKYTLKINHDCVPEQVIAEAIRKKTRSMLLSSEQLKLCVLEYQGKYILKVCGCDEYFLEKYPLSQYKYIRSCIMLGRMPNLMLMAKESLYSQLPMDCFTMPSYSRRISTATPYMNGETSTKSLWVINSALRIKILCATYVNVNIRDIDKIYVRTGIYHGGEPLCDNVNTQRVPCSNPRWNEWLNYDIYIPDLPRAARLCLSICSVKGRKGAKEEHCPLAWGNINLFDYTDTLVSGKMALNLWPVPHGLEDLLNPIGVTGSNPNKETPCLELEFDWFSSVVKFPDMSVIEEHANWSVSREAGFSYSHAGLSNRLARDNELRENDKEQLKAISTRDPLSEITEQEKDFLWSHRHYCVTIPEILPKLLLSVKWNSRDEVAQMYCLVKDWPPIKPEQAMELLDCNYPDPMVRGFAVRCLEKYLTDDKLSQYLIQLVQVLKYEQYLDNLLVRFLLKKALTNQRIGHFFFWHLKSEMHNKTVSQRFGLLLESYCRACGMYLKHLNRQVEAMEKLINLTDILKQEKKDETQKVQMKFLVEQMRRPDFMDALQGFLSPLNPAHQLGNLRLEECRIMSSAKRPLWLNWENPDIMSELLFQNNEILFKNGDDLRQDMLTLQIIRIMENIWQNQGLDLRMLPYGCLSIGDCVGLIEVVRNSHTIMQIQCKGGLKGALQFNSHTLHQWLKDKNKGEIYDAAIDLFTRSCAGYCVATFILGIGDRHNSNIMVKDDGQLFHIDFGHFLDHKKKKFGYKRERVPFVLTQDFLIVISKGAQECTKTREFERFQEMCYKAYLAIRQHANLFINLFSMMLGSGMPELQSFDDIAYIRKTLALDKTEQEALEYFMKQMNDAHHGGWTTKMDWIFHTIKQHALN

As to `CCOc1cc(C(=O)N2CCC(N3CCN(C)CC3)CC2)ccc1Nc1ncc2c(n1)N(C1CCCC1)c1ccccc1C(=O)N2C` [Compound 26], the “KINOMEscan: DYRK2” value on panel of 442 kinases [1] is given as 100. At panel of 442 kinases [2], the “KINOMEscan: PIK3CA(I800L)” value was found to be 75.
In the case of `COc1cc(C(=O)N2CCC(N3CCN(C)CC3)CC2)ccc1Nc1ncc2c(n1)N1CCc3cccc(c31)C(=O)N2C` [Compound 24], the “KINOMEscan: DYRK2” value at panel of 442 kinases [1] amounted to 82. At panel of 442 kinases [2], the “KINOMEscan: PIK3CA(I800L)” value was 64.
For the compound `COc1cc(C(=O)N2CCC(N3CCN(C)CC3)CC2)ccc1Nc1ncc2c(n1)N(C)c1ccccc1C(=O)N2C` [15 (LRRK2-IN-1)], at panel of 442 kinases [1], the “KINOMEscan: DYRK2” value is on record as 76. Further, the “KINOMEscan: PIK3CA(I800L)” value at panel of 442 kinases [2] is 38.
On to `COc1cc(C(=O)N2CCC(N3CCN(C)CC3)CC2)ccc1Nc1ncc2c(n1)N(C1CCCC1)c1ccccc1C(=O)N2C` [Compound 25, 11-cyclopentyl-2-((2-methoxy-4-(4-(4-methylpiperazin-1-yl)piperidine-1-carbonyl)phenyl)amino)-5-methyl-5H-benzo[e]pyrimido[5,4-b][1,4]diazepin-6(11H)-one], for which, at panel of 442 kinases [1], the “KINOMEscan: DYRK2” value stood at 100. Further, the “KINOMEscan: PIK3CA(I800L)” value on panel of 442 kinases [2] amounted to 100.

The values above are taken from PMC3914206.
